Columns and labels:
Splenocyte [1] = assay: Immunosuppressive activity in BALB/c mouse splenocytes assessed as inhibition of LPS-induced B cell proliferation incubated for 48 hrs by CCK-8 assay; type: functional, cell-based
RAW264.7 = assay: Antiinflammatory activity against mouse RAW264.7 cells assessed as reduction of LPS-induced NO production preincubated for 2 hrs followed by LPS-stimulation and measured after 12 hrs by Griess reagent assay; type: functional, cell-based
Splenocyte [2] = assay: Immunosuppressive activity in BALB/c mouse splenocytes assessed as inhibition of ConA-induced T cell proliferation incubated for 48 hrs by CCK-8 assay; type: functional, cell-based
[3] = biological target: T1, 3-hydroxy-3-methylglutaryl-coenzyme A reductase (Homo sapiens, UniProt P04035); assay: Inhibition of human HMGR
T1 sequence (P04035 whole entry): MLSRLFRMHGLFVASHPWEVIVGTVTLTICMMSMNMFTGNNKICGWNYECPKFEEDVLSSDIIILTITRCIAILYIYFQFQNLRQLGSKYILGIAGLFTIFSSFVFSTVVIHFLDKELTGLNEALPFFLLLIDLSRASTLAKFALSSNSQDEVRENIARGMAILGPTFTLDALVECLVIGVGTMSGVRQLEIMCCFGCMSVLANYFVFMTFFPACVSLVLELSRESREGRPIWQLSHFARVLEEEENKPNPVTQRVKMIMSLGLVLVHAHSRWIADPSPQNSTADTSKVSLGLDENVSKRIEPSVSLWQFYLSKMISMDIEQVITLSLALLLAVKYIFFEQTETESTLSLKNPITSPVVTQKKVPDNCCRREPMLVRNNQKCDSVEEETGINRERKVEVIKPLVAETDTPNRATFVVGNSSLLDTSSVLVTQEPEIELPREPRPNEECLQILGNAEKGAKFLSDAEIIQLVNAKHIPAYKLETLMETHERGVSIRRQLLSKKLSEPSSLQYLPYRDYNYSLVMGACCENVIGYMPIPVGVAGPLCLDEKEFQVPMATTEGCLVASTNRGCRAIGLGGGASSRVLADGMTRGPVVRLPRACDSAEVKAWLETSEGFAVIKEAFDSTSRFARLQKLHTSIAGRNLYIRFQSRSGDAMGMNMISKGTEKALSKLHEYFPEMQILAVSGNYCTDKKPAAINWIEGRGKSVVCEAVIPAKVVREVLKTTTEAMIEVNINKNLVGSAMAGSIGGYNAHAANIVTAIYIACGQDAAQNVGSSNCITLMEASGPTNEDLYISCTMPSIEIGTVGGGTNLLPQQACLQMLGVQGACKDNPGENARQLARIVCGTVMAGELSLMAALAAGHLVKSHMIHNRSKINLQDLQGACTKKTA

Candida albicans = assay: Antifungal activity against Candida albicans ATCC10231 assessed as reduction in microbial growth incubated for 16 hrs by broth microdilution method; type: functional

IC50 (RAW264.7)	IC50 [3]	MIC (Candida albicans)	SMILES	IC50 (Splenocyte [1])	IC50 (Splenocyte [2])
> 40 µM	–	–	CC(C)=C/C=C\[C@H](C)[C@H]1CC[C@]2(C)C[C@@H]3C(=O)C=C4C3=C(CC[C@@H]12)C(=O)N4CCO	25.4 µM	> 40 µM
> 40 µM	–	–	C/C1=C/C[C@H]2[C@@H]([C@@H](C)CC/C=C(\C)CO)CC[C@]2(C)C[C@@]2(O)[C@H](C)CC[C@H]12	> 40 µM	2.29 µM
> 40 µM	–	–	C=C1[C@H]2[C@H](O)C[C@@](C)(O)[C@H]2C[C@@]2(C)CC[C@H]([C@@H](C)CC/C=C(\C)C(=O)O)[C@@H]2C[C@@H]1O	> 40 µM	10.8 µM
> 40 µM	–	–	C=C1[C@H]2CC[C@@](C)(O)[C@H]2C[C@@]2(C)CC[C@H]([C@@H](C)CC/C=C(\C)CO)[C@@H]2C[C@@H]1O	19.4 µM	> 40 µM
8.31 µM	–	–	CC(C)=C/C=C\[C@H](C)[C@H]1CC[C@]2(C)C[C@@H]3C(C)=CC(=O)[C@H]3[C@H](CO)CC[C@@H]12	> 40 µM	> 40 µM
> 40 µM	–	–	CC1=CC(=O)[C@H]2/C(CO)=C\C[C@H]3[C@@H]([C@@H](C)/C=C\[C@@H]4OC4(C)C)CC[C@]3(C)C[C@H]12	> 40 µM	> 40 µM
> 40 µM	–	–	CC1=CC(=O)/C2=C(\CO)CC[C@H]3[C@@H]([C@@H](C)CC/C=C(\C)C(=O)O)CC[C@]3(C)C[C@H]12	> 40 µM	> 40 µM
> 40 µM	–	–	CC(C)=C/C=C\[C@H](C)[C@H]1CC[C@]2(C)C[C@@]3(O)[C@H](C)CC[C@@H]3/C(CO)=C\C[C@@H]12	> 40 µM	15.6 µM
> 40 µM	–	–	C=C1[C@H]2[C@@H](O)C[C@@](C)(O)[C@H]2C[C@@]2(C)CC[C@H]([C@@H](C)CC/C=C(\C)C(=O)O)[C@@H]2C[C@@H]1O	> 40 µM	> 40 µM
> 40 µM	–	–	CC(C)=C/C=C\[C@H](C)[C@H]1CC[C@]2(C)C[C@@]3(O)[C@H](C)C[C@@H](O)[C@@H]3/C(CO)=C\C[C@@H]12	> 40 µM	35.8 µM
> 40 µM	–	–	CC(C)=C/C=C/[C@H](C)[C@H]1CC[C@]2(C)C[C@@]3(O)[C@H](C)C[C@@H](O)[C@@H]3/C(CO)=C\C[C@@H]12	> 40 µM	> 40 µM
–	2.5 µM	4 µg/mL	CC(C)=C[C@H]1C[C@H](C)[C@]2(CC[C@]3(C)C[C@@H]4C(=O)C=C5C4=C(CC[C@H]32)C(=O)N5CCO)O1	–	–
–	–	–	C[C@@H]1C[C@H]2[C@@H]3CCC4=CC(=O)C=C[C@]4(C)[C@@]3(F)[C@@H](O)C[C@]2(C)[C@@]1(O)C(=O)CO [DEXAMETHASONE]	0.47 µM	0.04 µM
> 40 µM	–	–	CC(C)=CCC[C@H](C)[C@H]1CC[C@]2(C)C[C@@]3(O)[C@H](C)CC[C@@H]3/C(CO)=C\C[C@@H]12	> 40 µM	> 40 µM

Reference: ChEMBL document CHEMBL5584299, “Undobolins A-L, Ophiobolin-Type Sesterterpenoids from Aspergillus undulatus” (J Nat Prod, 2024)
